Values joined by “and” are separate entries in the source; they are usually repeats but may differ in a detail not shown here. Identical values can stand only once.
Tests used:
plasma protein [1] = assay: Plasma protein binding (dialysis), human; type: in vitro ADME
Description: (§1) A compound solution (1 mM in DMSO) (5 μL), according to the invention is added to the respective plasma matrices of rat or human or mouse (1 ml).
(§2) Add 150 μl of phosphate buffer to receiving side of the dialysis well. […] Precipitate with Acetonitrile and dilute samples prior to analysis in 1.5 ml polypropylene tubes. Remove 50 μl from the sample side of dialysis well and add 50 μl of phosphate buffer+300 μl of acetonitrile containing IS. Remove 50 μl from the buffer side of the dialysis well and add 50 μl of respective matrix plasma+300 μl of ACN. Then vortexed and centrifuged for 5 min, and supernatant is taken and injected into LCMS.
(§3) Different test concentration ranging from 0.1 μM to 20 μM are made in methanol:water (90:10). Test solutions are added to the premixed matrix containing plasma:phosphate buffer (50:50). Precipitate with 300 μl of ice cold acetonitrile containing IS, vortexes and centrifuged. Supernatant is taken and injected into LCMS.
(§4) Percentage of plasma protein binding was obtained via Equation (2): % Fraction unbound=(concentration on the buffer side/concentration on the sample side)*100

caco2 system = assay: Permeability in caco2 system; type: in vitro ADME; settings: caco2, efflux >2
[2] = Permeability in caco2 system; type: in vitro ADME; settings: human, Caco-2; caco2
[3] = Stability in simulating gastric fluid (SGF); type: physicochemical; settings: SGF pH 2.2, up to 120 min
Description: (§5) On completion of incubation period, the solution is centrifuged and supernatant is taken. To the supernatant, ice cold acetonitrile containing IS is added, vortexed and injected into LCMS/MS.
(§6) API 4000, ESI Agilent 1100 column: Gemini Nx 100 mm×4.6 mm 5.μ; column temperature: 30° C.; eluent A: 0.1% formic acid in water, eluent B: acetonitrile; gradient: 0-2.5 min 95% A, 5% B; 2.5-2.6 min 5% A, 95% B; 2.6-4.2 min 95% A, 5% B; flow rate: 0.8 ml/min; ESI. Q1:464.098, Q3:144.255
SIF/SGF: 2.38 g of SIF original powder (biorelavant media) is dissolved in 1 L of milliQ water. The pH of the solution is adjusted for SIF (7.4) and SGF (2.2) with 0.1N HCl. The ratios of the peak areas (F) at the respective time points in relation to the peak areas at the starting time are calculated. […] The peak area (F) is directly correlated to the amount of test compound which is quantified by the LC MS method.
In simulating intestinal and gastric fluid, the area of the formula B compared with zero minute area to 120 min.

[4] = Stability in buffer at various pH (LC-MS/MS); type: physicochemical; settings: for Analyte Peak Area (counts): 24 hr room temperature, replicates, Standard average 39849828
Description: as §5, §6
Prepared 0.1 mol of citric acid and 0.2 mol of di sodium hydrogen phosphate in water. Buffer pH 2.2, 4 and 7.8 are prepared using citric acid and disodium hydrogen phosphate by adjusting the pH with 0.1N HCl or 1N NaOHpH 7.4:8.89 g disodium hydrogen phosphate (Solution A) add to 1 litre of water, 1.5601 g sodium di-hydrogen phosphate (solution B) are made up to 1 liter with water; […] are mixed.

plasma protein [5] = assay: Plasma protein binding (dialysis), mouse; type: in vitro ADME
Description: as §1, §2, §3, §4

[6] = Anticoagulant activity (PT, APTT) in human plasma; type: biochemical; settings: 0.1 to 1.0 μg/mL, PT and APTT
Description: The anticoagulant action of the test substance (compound formula-B) and rivaroxaban was determined in vitro using human plasma. The human plasma used for this experiment was separated from the blood collected in sodium citrate as anticoagulant. The prothrombin time (PT) was determined by using a commercial test kit (Neoplastin from Stagid) and APTT was determined using (Synthasil kit by IL). […] Coagulation was then started by addition of thromboplastin, and time when coagulation occurred was determined. The concentration of test substance which effected a doubling of prothrombin time was determined.

[7] = Intravenous and oral excretion profile in Wistar rats; type: in vivo; settings: after i.v. administration, first measurement point
Description: On the day before administration of the substance, a catheter for obtaining blood is implanted in the jugular vein of the experimental animals (male Wistar rats, body weight 200-250 g) under Isoflurane. anesthesia.
Urine and faeces are taken collected from metabolic cages over the course of 144 h after administration of the substance. The administration volume is 10 ml/kg for oral and 1 ml/kg for IV in male Wistar rats. Intravenous administration is via a formulation of 2% N—N Dimethyl acetamide/ethanol 10%/PEG400(30%)/water for IV injection (58%) and via Tween80/PEG400/sterile water in the case of oral administration. Urine and faeces collection is 0-4, 4-8, 8-24, 24-48, 48-72, 72-96, 96-120, 120-144 in the case of IV and for oral administration.
Urine and faeces was processed and IS containing Acetonitrile is added to a defined urine/faeces and precipitated. After centrifugation, compound formula (B) and, where appropriate, known cleavage products of the compound formula (B) in the supernatant are determined quantitatively using a suitable LC/MS-MS method.
The measured urine and faeces concentrations are used to calculate parameters of the test substance and of the active ingredient compound (A) liberated there from, such as AUC and Cmax.
Acetonitrile containing IS is added to the study samples, calibration samples and QCs, and the protein is precipitated using acetonitrile. […]

- Observation: amount of test product (plasma protein [1]): Not quantificable amount of test
- Observation: formed Rivaroxaban bound to plasma protein (plasma protein [1]): Rivaroxaban found to be High
- Interpretation: Pgp substrate (caco2 system): observed to be a Pgp substrate.
- Papp A→B [2]: 17.4 ×10⁻⁶ cm/s
- Conclusion (stability in SGF) [3]: is stable
- Analyte Peak Area (counts) ([4]; pH 2.1 buffer): 20975674 counts and 35654402 counts
- Analyte Peak Area (counts) ([4]; pH 4 buffer): 42841292 counts and 26917087 counts
- Analyte Peak Area (counts) ([4]; pH 7.8 buffer): 35312 counts and 42503 counts
- Stability in varying pH buffer conditions ([4]; varying pH buffers, rivaroxaban formation observed): degraded
- Observation: amount of test product (plasma protein [5]): Not quantificable amount of test
- Observation: formed Rivaroxaban bound to plasma protein (plasma protein [5]): moderate-High bound to plasma
- Detectability of unchanged test substance in urine and faeces [7]: no longer detectable
SMILES: O=CN(C[C@H]1CN(c2ccc(N3CCOCC3=O)cc2)C(=O)O1)C(=O)c1ccc(Cl)s1 [compound formula (B), 5-chloro-N-formyl-N-({(5S)-2-oxo-3-[4-(3-oxomorpholin-4-yl)phenyl]-1,3-oxazolidin-5-yl}methyl)thiophene-2-carboxamide]
- Anticoagulant activity [6]: significant anticoagulant activity
